From patent US11510933B2, “Use of Pulsatilla chinensis extract in the preparation of drugs for treatment of viral and/or bacterial diseases” (priority 2018, dated 2022)

Legend:
canine renal failure = experiment: treatment of canine renal failure; type: in vivo, dogs; details: 14 days, n = 10
canine acute nephritis = experiment: treatment of canine acute nephritis; type: in vivo, dogs; details: 14 days, n = 10; for Positive rate of white blood cell (+++, %): urine
Protocol: Anemoside B4 injection prepared in example 3, with a concentration of 50 mg/mL.
Dogs suffering from acute nephritis are cases received by various pet hospitals in Chengdu city.
The sick dogs are characterized by loss of appetite, indigestion, depression, and a slight increase in body temperature.
Anemoside B4 injection was intravenously injected, 2 mL/time in low-dose group, 4 mL/time in medium-dose group, 8 mL/time in high-dose group, once a day; anemoside B4 injection was intramuscularly injected, 1 mL/time in low-dose group, 2 mL/time in the middle-dose group, 4 mL/time in the high-dose group, twice a day; the treatment was kept for 14 days.

[1] = high-dose, intramuscular injection 4 mL/time (50 mg/mL), twice a day
[2] = high-dose, intravenous injection 8 mL/time (50 mg/mL), once a day
[3] = low-dose, intramuscular injection 1 mL/time (50 mg/mL), twice a day
[4] = low-dose, intravenous injection 2 mL/time (50 mg/mL), once a day
[5] = medium-dose, intramuscular injection 2 mL/time (50 mg/mL), twice a day
[6] = medium-dose, intravenous injection 4 mL/time (50 mg/mL), once a day

For C=C(C)[C@@H]1CC[C@]2(C(=O)O[C@@H]3O[C@H](CO[C@@H]4O[C@H](CO)[C@@H](O[C@@H]5O[C@@H](C)[C@H](O)[C@@H](O)[C@H]5O)[C@H](O)[C@H]4O)[C@@H](O)[C@H](O)[C@H]3O)CC[C@]3(C)[C@H](CC[C@@H]4[C@@]5(C)CC[C@H](O[C@@H]6OC[C@H](O)[C@H](O)[C@H]6O[C@@H]6O[C@@H](C)[C@H](O)[C@@H](O)[C@H]6O)[C@@](C)(CO)[C@@H]5CC[C@]43C)[C@H]12 [anemoside B4], the Body temperature (canine renal failure; [1]) was 38.5 ± 0.2 °C, the Creatinine (canine renal failure; [1]) was 100 ± 30 µmol/L and the Inorganic phosphous (canine renal failure; [1]) was 1.4 ± 0.08 mmol/L. It also gave a Mortality rate (canine renal failure; [1]) of 40%, a Urea (canine renal failure; [1]) of 14.2 ± 0.4 mmol/L and a Body temperature (canine renal failure; [2]) of 38.6 ± 0.4 °C. It also gave a Creatinine (canine renal failure; [2]) of 109 ± 20 µmol/L, an Inorganic phosphous (canine renal failure; [2]) of 0.9 ± 0.06 mmol/L and a Mortality rate (canine renal failure; [2]) of 20%. For the same compound, the Urea (canine renal failure; [2]) was 8.7 ± 0.3 mmol/L, the Body temperature (canine renal failure; [3]) was 37.8 ± 0.3 °C and the Creatinine (canine renal failure; [3]) was 130 ± 19 µmol/L. For the same compound, the Inorganic phosphous (canine renal failure; [3]) was 1.6 ± 0.02 mmol/L, the Mortality rate (canine renal failure; [3]) was 60% and the Urea (canine renal failure; [3]) was 20.8 ± 0.5 mmol/L. For the same compound, the Body temperature (canine renal failure; [4]) was 38.3 ± 0.5 °C, the Creatinine (canine renal failure; [4]) was 117 ± 25 µmol/L and the Inorganic phosphous (canine renal failure; [4]) was 1.1 ± 0.05 mmol/L. For the same compound, the Mortality rate (canine renal failure; [4]) was 40%, the Urea (canine renal failure; [4]) was 11.8 ± 0.6 mmol/L and the Body temperature (canine renal failure; [5]) was 38.2 ± 0.4 °C. The Creatinine (canine renal failure; [5]) was 120 ± 26 µmol/L, the Inorganic phosphous (canine renal failure; [5]) was 2.0 ± 0.03 mmol/L and the Mortality rate (canine renal failure; [5]) was 50%. The Urea (canine renal failure; [5]) was 17.5 ± 0.7 mmol/L, the Body temperature (canine renal failure; [6]) was 38.5 ± 0.3 °C and the Creatinine (canine renal failure; [6]) was 115 ± 12 µmol/L. It also gave an Inorganic phosphous (canine renal failure; [6]) of 1.5 ± 0.04 mmol/L, a Mortality rate (canine renal failure; [6]) of 30% and a Urea (canine renal failure; [6]) of 9.9 ± 0.8 mmol/L. For the same compound, the Body temperature (canine acute nephritis; [1]) was 39.0 ± 0.2 °C, the Mortality rate (canine acute nephritis; [1]) was 50% and the “Positive rate of urine protein (+++, %)” value (canine acute nephritis; [1]) was 60%. It also gave a Urine specific gravity (canine acute nephritis; [1]) of 1.064 ± 0.02, a Body temperature (canine acute nephritis; [2]) of 38.5 ± 0.4 °C and a Mortality rate (canine acute nephritis; [2]) of 30%. For the same compound, the “Positive rate of urine protein (+++, %)” value (canine acute nephritis; [2]) was 30%, the Urine specific gravity (canine acute nephritis; [2]) was 1.003 ± 0.01 and the Body temperature (canine acute nephritis; [3]) was 39.5 ± 0.3 °C. For the same compound, the Mortality rate (canine acute nephritis; [3]) was 60%, the “Positive rate of urine protein (+++, %)” value (canine acute nephritis; [3]) was 80% and the Urine specific gravity (canine acute nephritis; [3]) was 1.123 ± 0.01. For the same compound, the Body temperature (canine acute nephritis; [4]) was 38.7 ± 0.5 °C, the Mortality rate (canine acute nephritis; [4]) was 50% and the “Positive rate of urine protein (+++, %)” value (canine acute nephritis; [4]) was 50%. The Urine specific gravity (canine acute nephritis; [4]) was 1.017 ± 0.25, the Body temperature (canine acute nephritis; [5]) was 39.3 ± 0.4 °C and the Mortality rate (canine acute nephritis; [5]) was 60%. The “Positive rate of urine protein (+++, %)” value (canine acute nephritis; [5]) was 70%, the Urine specific gravity (canine acute nephritis; [5]) was 1.094 ± 0.04 and the Body temperature (canine acute nephritis; [6]) was 38.8 ± 0.3 °C. The Mortality rate (canine acute nephritis; [6]) was 40%, the “Positive rate of urine protein (+++, %)” value (canine acute nephritis; [6]) was 40% and the Urine specific gravity (canine acute nephritis; [6]) was 1.005 ± 0.09. The “Positive rate of white blood cell (+++, %)” value (canine acute nephritis; [1]) was 70%, the “Positive rate of white blood cell (+++, %)” value (canine acute nephritis; [2]) was 30% and the “Positive rate of white blood cell (+++, %)” value (canine acute nephritis; [3]) was 80%. The “Positive rate of white blood cell (+++, %)” value (canine acute nephritis; [4]) was 60%, the “Positive rate of white blood cell (+++, %)” value (canine acute nephritis; [5]) was 80% and the “Positive rate of white blood cell (+++, %)” value (canine acute nephritis; [6]) was 40%.
